Measurements from patent publication US20250326741A1, “GLUCOSE-DEPENDENT INSULINOTROPIC POLYPEPTIDE RECEPTOR ANTAGONISTS AND USES THEREOF” (Pfizer Inc., priority 2024, published 2025).

target: T1, human Glucose-dependent Insulinotropic Polypeptide Receptor (hGIPR) (Homo sapiens, UniProt P48546); test: Functional in vitro GIPR antagonist potency assay (intracellular cAMP, HTRF, hGIP stimulation at EC80); type: cell-based; conditions: not given
T1 sequence (P48546 22-466): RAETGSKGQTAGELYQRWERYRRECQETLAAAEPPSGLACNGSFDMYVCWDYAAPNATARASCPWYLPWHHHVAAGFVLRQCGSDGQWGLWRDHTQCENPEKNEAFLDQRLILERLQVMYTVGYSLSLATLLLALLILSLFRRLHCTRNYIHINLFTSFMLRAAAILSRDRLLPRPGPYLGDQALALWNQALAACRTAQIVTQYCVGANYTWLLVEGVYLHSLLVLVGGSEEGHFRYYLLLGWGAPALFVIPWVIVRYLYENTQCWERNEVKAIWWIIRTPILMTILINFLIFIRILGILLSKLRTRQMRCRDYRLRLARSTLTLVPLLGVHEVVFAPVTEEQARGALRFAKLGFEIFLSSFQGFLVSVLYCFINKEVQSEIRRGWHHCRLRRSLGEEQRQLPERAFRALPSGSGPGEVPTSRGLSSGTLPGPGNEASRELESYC
Protocol: Example AA. Functional In Vitro GIPR Antagonist Potency Assay
The functional in vitro antagonist potency for test compounds was determined by monitoring intracellular cyclic adenosine monophosphate (cAMP) levels in Chinese hamster ovary (CHO)—K1 cells stably expressing the human Glucose-dependent Insulinotropic Polypeptide Receptor (hGIPR). Following agonist activation, hGIPR associates with the G-protein complex causing the Gas subunit to exchange bound guanosine diphosphate (GDP) for guanosine triphosphate (GTP), followed by dissociation of the Gas-GTP complex. The activated Gas subunit can couple to downstream effectors to regulate the levels of second messengers or cAMP within the cell. Thereby, determination of intracellular cAMP levels allows for pharmacological characterization. Intracellular cAMP levels are quantitated using a homogenous assay utilizing the Homogeneous Time Resolved Fluorescence (HTRF) technology from Perkin Elmer. The method is a competitive immunoassay between native cAMP produced by the cells and cAMP labelled with the acceptor dye, d2. The two entities compete for binding to a monoclonal anti-cAMP antibody labeled with cryptate. The specific signal is inversely proportional to the concentration of cAMP in the cells.
Test compounds were solubilized to a concentration of 30 mM in 100% dimethyl sulfoxide (DMSO). An 11-point dilution series using 1 in 3.162-fold serial dilutions was created in 100% DMSO with a top concentration of 8 mM. The serially diluted compound was spotted with an Echo Acoustic liquid handler (Beckman Coulter) into a 384-well assay plate (Corning, Cat No. 3824) at 50 nL/well with duplicate points at each concentration, at a 200× final assay concentration (FAC). The final compound concentration range in the assay was 40 μM to […], with a final DMSO concentration of 0.5%.
Frozen assay-ready vials (at 1×10^7 cells/vial) of CHO-K1 cells stably expressing the Gs-coupled human GIPR receptor (Eurofins, DiscoverX, Cat No. 95-0146C2) were thawed, counted, and resuspended in assay buffer consisting of Hank's Balanced Salt Solution (HBSS, Lonza Cat No. 10-527) containing 20 mM (4-(2-hydroxyethyl)-1-piperazineethanesulfonic acid (HEPES, Lonza, Cat No. 17-737E), 0.1% bovine serum albumin (BSA, Sigma, Cat No. A7979), and 200 μM 3-isobutyl-1-methylxanthine (IBMX, Sigma, Cat No. 15879) at a density of 4×10^5 cells/mL. Cells were added to assay plate (5 μL/well of 4×10^5 cells/mL stock for 2,000 cells/well final) containing 50 nL of 200×FAC test compound, and incubated at 37° C. (95% O2: 5% CO2) for 2 hours, with micro-clime lids (Labcyte, Cat No. LLS-0310). Following the 2-hour cell and compound incubation, a stimulation mix comprised of hGIPR agonist human glucose-dependent insulinotropic polypeptide (hGIP, full length, Sigma Cat No. G2269) in assay buffer/0.1% DMSO was added to the assay plate (5 μL/well) at an estimated EC80 FAC (based on previous hGIP agonist curves) and incubated for another 30 minutes with micro-clime lids at 37° C. (95% O2: 5% CO2), after which intracellular cAMP levels were quantified as per Perkin Elmer's protocol (5 μL of d2 and then 5 μL cryptate, incubated for 1 hour at room temperature). Emission spectra of samples were measured on a Pherastar plate reader (BMG Labtech Inc) using a HTRF protocol (excitation, 320 nm; emission, 665 nm/620 nm).
(95% O2: 5% CO2), with a micro-clime lid. Following the 2-hour cell and DMSO incubation, a hGIP concentration response curve at 2×FAC (12-point curve using 1 in 3 serial dilutions, with triplicate points at each concentration, 100 nM final top concentration) in assay buffer/1% DMSO was added (5 μL/well) and incubated for a further 30 minutes with a micro-clime lid at 37° C. (95% O2: 5% CO2), after which intracellular cAMP levels were quantified and samples measured as described previously. Experiments passed quality control if the agonist concentration used for stimulation fell between the on-the-day EC50-EC90. […]

Structure (SMILES) | IC50 [nM]
Cc1cc(-n2ccc(NC(=O)[C@H]3CCCN3C(=O)Nc3ccc(OC(F)(F)F)cc3)n2)ccc1C(=O)O [Example 11, 2-Methyl-4-{3-[(1-{[4-(trifluoromethoxy)phenyl]carbamoyl}-D-prolyl)amino]-1H-pyrazol-1-yl}benzoic Acid] | 11

same assay, conditions: geometric mean; CHO-K1 cells stably expressing human GIPR, cAMP after hGIP stimulation at EC80

Structure (SMILES) | IC50 [nM]
CC(C)c1ccc(NC(=O)N2CCC[C@@H]2C(=O)Nc2ccn(-c3cccc(C(=O)O)c3)n2)cc1 [Example 20, 3-{3-[(1-{[4-(propan-2-yl)phenyl]carbamoyl}-D-prolyl)amino]-1H-pyrazol-1-yl}benzoic acid] | 240
Cc1cc(-n2ccc(NC(=O)[C@H]3CCCN3C(=O)Nc3ccc(C(F)(F)F)c(Cl)c3)n2)ccc1C(=O)O [Example 52, 4-{3-[(1-{[3-chloro-4-(trifluoromethyl)phenyl]carbamoyl}-D-prolyl)amino]-1H-pyrazol-1-yl}-2-methylbenzoic acid] | 13
Cc1cc(-n2ccc(NC(=O)[C@H]3CCCN3C(=O)NCc3ccc(C4CC4)cc3)n2)ccc1C(=O)O [Example 47, 4-{3-[(1-{[(4-cyclopropylphenyl)methyl]carbamoyl}-D-prolyl)amino]-1H-pyrazol-1-yl}-2-methylbenzoic acid] | 220
CC(C)c1ccc(NC(=O)N2CCC[C@@H]2C(=O)Nc2ccn(-c3cc(F)c(O)c(F)c3)n2)cc1F [Example 14, (2R)—N^2-[1-(3,5-Difluoro-4-hydroxyphenyl)-1H-pyrazol-3-yl]-N^1-[3-fluoro-4-(propan-2-yl)phenyl]pyrrolidine-1,2-dicarboxamide] | 7.2
Cc1cc(-n2ccc(NC(=O)[C@H]3CCCN3C(=O)Nc3ccc(C(C)C)cc3)n2)ccc1C(=O)O [Example 29, 2-methyl-4-{3-[(1-{[4-(propan-2-yl)phenyl]carbamoyl}-D-prolyl)amino]-1H-pyrazol-1-yl}benzoic acid] | 13
CC(C)c1ccc(NC(=O)N2CCC[C@@H]2C(=O)Nc2ccn(-c3ccc(O)cc3F)n2)cc1 [Example 44] | 34
O=C(Nc1ccn(-c2cc(F)c(O)c(F)c2)n1)[C@H]1CCCN1C(=O)Nc1ccc(C(F)(F)F)cc1 [Example 54] | 12
CC(C)c1ccc(NC(=O)N2CCC[C@@H]2C(=O)Nc2ccn(-c3ccc(CC(=O)O)cc3)n2)cc1 [Example 2, (4-{3-[(1-{[4-(Propan-2-yl)phenyl]carbamoyl}-D-prolyl)amino]-1H-pyrazol-1-yl}phenyl)acetic Acid] | 25
Cc1c(C(=O)O)ccc(-n2ccc(NC(=O)[C@H]3CCCN3C(=O)Nc3ccc(OC(F)(F)F)cc3)n2)c1F [Example 62, 3-fluoro-2-methyl-4-{3-[(1-{[4-(trifluoromethoxy)phenyl]carbamoyl}-D-prolyl)amino]-1H-pyrazol-1-yl}benzoic acid] | 7.6
CC(C)c1ccc(NC(=O)N2CCC[C@@H]2C(=O)Nc2ccn(-c3cc(F)c(O)c(F)c3)n2)cc1 [Example 43] | 5.3
Cc1c(C(=O)O)ccc(-n2ccc(NC(=O)[C@H]3CCCN3C(=O)COc3ccc(OC(F)(F)F)cc3)n2)c1F [Example 65, 3-fluoro-2-methyl-4-{3-[(1-{[4-(trifluoromethoxy)phenoxy]acetyl}-D-prolyl)amino]-1H-pyrazol-1-yl}benzoic acid] | 40
CC(C)c1ccc(NC(=O)N2CCC[C@@H]2C(=O)Nc2ccn(-c3ccc(C(=O)O)cc3)n2)cc1 [Example 22, 4-{3-[(1-{[4-(propan-2-yl)phenyl]carbamoyl}-D-prolyl)amino]-1H-pyrazol-1-yl}benzoic acid] | 22
Cc1cc(-n2ccc(NC(=O)[C@H]3CCCN3C(=O)CCc3ccc(C(F)(F)F)cc3)n2)ccc1C(=O)O [Example 18, 2-Methyl-4-{3-[(1-{3-[4-(trifluoromethyl)phenyl]propanoyl}-D-prolyl)amino]-1H-pyrazol-1-yl}benzoic Acid] | 250
Cc1cc(-n2ccc(NC(=O)[C@H]3CCCN3C(=O)NCc3ccc(C(F)(F)F)c(F)c3)n2)ccc1C(=O)O [Example 48, 4-(3-{[1-{{[3-fluoro-4-(trifluoromethyl)phenyl]methyl}carbamoyl)-D-prolyl]amino}-1H-pyrazol-1-yl)-2-methylbenzoic acid] | 150
Cc1cc(-n2ccc(NC(=O)[C@H]3CCCN3C(=O)NCc3ccc(C(F)(F)F)cc3)n2)ccc1C(=O)O [Example 40, 2-methyl-4-(3-{[1-{{[4-(trifluoromethyl)phenyl]methyl}carbamoyl)-D-prolyl]amino}-1H-pyrazol-1-yl)benzoic acid] | 150
Cc1cc(-n2ccc(NC(=O)[C@H]3CCCN3C(=O)Nc3ccc(C4CC4)c(C)c3)n2)ccc1C(=O)O [Example 39, 4-[3-({1-[(4-cyclopropyl-3-methylphenyl)carbamoyl]-D-prolyl}amino)-1H-pyrazol-1-yl]-2-methylbenzoic acid] | 27
CC(C)c1ccc(NC(=O)N2CCC[C@@H]2C(=O)Nc2ccn(-c3ccc(C(=O)O)cc3F)n2)cc1 [Example 24, 3-fluoro-4-{3-[(1-{[4-(propan-2-yl)phenyl]carbamoyl}-D-prolyl)amino]-1H-pyrazol-1-yl}benzoic acid] | 15
CC(C)c1ccc(NC(=O)N2CCC[C@@H]2C(=O)Nc2ccn(-c3ccc(C(=O)O)cc3F)n2)cc1F [Example 34, 3-fluoro-4-{3-[(1-{[3-fluoro-4-(propan-2-yl)phenyl]carbamoyl}-D-prolyl)amino]-1H-pyrazol-1-yl}benzoic acid] | 15
Cc1cc(-n2ccc(NC(=O)[C@H]3CCCN3C(=O)Nc3ccc(C4CC4)c(C(F)(F)F)c3)n2)ccc1C(=O)O [Example 53, 4-{3-[(1-{[4-cyclopropyl-3-(trifluoromethyl)phenyl]carbamoyl}-D-prolyl)amino]-1H-pyrazol-1-yl}-2-methylbenzoic acid] | 13
Cc1cc(-n2ccc(NC(=O)[C@H]3CCCN3C(=O)NCc3ccc(OC(F)(F)F)cc3)n2)ccc1C(=O)O [Example 8, 2-Methyl-4-(3-{[1-({[4-(trifluoromethoxy)phenyl]methyl}carbamoyl)-D-prolyl]amino}-1H-pyrazol-1-yl)benzoic Acid] | 61
Cc1cc(-n2ccc(NC(=O)[C@H]3CCCN3C(=O)Nc3ccc(C4CCCC4)cc3)n2)ccc1C(=O)O [Example 45, 4-[3-({1-[(4-cyclopentylphenyl)carbamoyl]-D-prolyl}amino)-1H-pyrazol-1-yl]-2-methylbenzoic acid] | 8.4
Cc1cc(-n2ccc(NC(=O)[C@H]3CCCN3C(=O)Nc3ccc(C(C)C)c(C)c3)n2)ccc1C(N)=O [Example 15, (2R)—N^2-[1-(4-Carbamoyl-3-methylphenyl)-1H-pyrazol-3-yl]-N^1-[3-methyl-4-(propan-2-yl)phenyl]pyrrolidine-1,2-dicarboxamide] | 41
